The target of test [1] is T1, human CB2 receptor (Homo sapiens, UniProt P34972).
T1 construct: expressed in transfected cells; host or cells: SK-N-MC cells, stably transfected with pcDNA3 CB-2 (human); semi-purified membrane pellet
The experiment in a line: Cannabinoid CB2 receptor binding assay ([3H]-CP-55,940 displacement, SK-N-MC cell membranes). The note with it: 1.5 h; test concentration of 0.2 μM; radioligand CP-55,940 0.2 nM; read-out: Cannabinoid CB2 Receptor Binding, percent inhibition. On the procedure: (§1) Binding Assay for CB1 or CB2 Agonists or Inverse Agonists
(§2) The human CB1 and CB2 receptors were stably expressed in SK-N-MC cells transfected with pcDNA3 CB-1 (human) or pcDNA3 CB-2 (human). The cells were grown in T-180 cell culture flasks under standard cell culture conditions at 37° C. in a 5% CO2 atmosphere. The cells were harvested by trysinization and homogenized in a homogenization buffer (10 mM Tris, 0.2 mM MgCl2, 5 mM KCl, with protease inhibitors aprotinin, leupeptin, pepstatin A and bacitracin) and centrifuged (2000 g). The supernatant was then centrifuged in 2M sucrose (31,300 g) to produce a semi-purified membrane pellet. The pellet was resuspended in homogenization and stored at −80° C.
(§3) On the day of the assay, the pellet was thawed on ice and diluted in assay buffer (50 mM Tris-HCl, 5 mM MgCl2, 2.5 mM EDTA, 0.5 mg/mL fatty acid free bovine serum albumin, pH 7.5). The diluted membrane pellet was added with buffer, either a test compound or vehicle standard and the radioligand […] (0.2 nM) to the wells of a 96-well polypropylene plate. Non-specific binding was measured in wells containing W1N 55,212 (10 uM). The plate was covered and incubated for 90 minutes at 30° C. The contents were then aspirated onto a Packard Unifilter GF/C filter bottom plate prewet with 0.5% polyethyleneimine. The wells of the polypropylene plate were rinsed and aspirated seven times with a 0.9% saline-0.5% Tween 20 solution. The Unifilter plate was dried, scintillation cocktail was added to each well and the counts representing binding were quantitated in a TopCount scintillation counter.
(§4) For compounds tested, an IC50 binding value was obtained from percent inhibition studies in which various test concentrations were used. The binding value was calculated by linear regression.
(§5) For compounds without an IC50 binding value, the percent inhibition (%) was obtained at a test concentration of 0.2 μM.

The target of test [2] is T2, human CB1 receptor (Homo sapiens, UniProt P21554).
T2 construct: expressed in transfected cells; host or cells: SK-N-MC cells, stably transfected with pcDNA3 CB-1 (human); semi-purified membrane pellet
T2 sequence (P21554 whole entry): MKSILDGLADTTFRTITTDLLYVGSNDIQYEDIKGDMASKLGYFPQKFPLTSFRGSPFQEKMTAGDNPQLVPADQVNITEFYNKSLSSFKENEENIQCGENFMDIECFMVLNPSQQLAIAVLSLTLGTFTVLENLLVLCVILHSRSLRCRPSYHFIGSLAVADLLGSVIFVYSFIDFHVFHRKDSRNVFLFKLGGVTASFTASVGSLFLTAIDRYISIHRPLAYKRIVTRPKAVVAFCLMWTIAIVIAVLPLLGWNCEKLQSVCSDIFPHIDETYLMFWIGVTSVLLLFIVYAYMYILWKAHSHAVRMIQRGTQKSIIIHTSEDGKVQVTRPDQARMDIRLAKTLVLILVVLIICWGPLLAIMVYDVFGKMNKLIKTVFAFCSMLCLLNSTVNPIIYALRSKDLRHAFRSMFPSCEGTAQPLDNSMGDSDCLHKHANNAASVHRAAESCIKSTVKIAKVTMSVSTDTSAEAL
As to the kind of experiment: Cannabinoid CB1 receptor binding assay ([3H]-CP-55,940 displacement, SK-N-MC cell membranes). The note with it: for inhibition at 0.2 µM: 1.5 h, read-out: Cannabinoid CB1 Receptor Binding, percent inhibition. On the procedure:
as §1, §2, §3, §4, §5

Structures are written as SMILES. Where two headings read alike, the source gives them in different places.

T1 sequence (P34972 whole entry): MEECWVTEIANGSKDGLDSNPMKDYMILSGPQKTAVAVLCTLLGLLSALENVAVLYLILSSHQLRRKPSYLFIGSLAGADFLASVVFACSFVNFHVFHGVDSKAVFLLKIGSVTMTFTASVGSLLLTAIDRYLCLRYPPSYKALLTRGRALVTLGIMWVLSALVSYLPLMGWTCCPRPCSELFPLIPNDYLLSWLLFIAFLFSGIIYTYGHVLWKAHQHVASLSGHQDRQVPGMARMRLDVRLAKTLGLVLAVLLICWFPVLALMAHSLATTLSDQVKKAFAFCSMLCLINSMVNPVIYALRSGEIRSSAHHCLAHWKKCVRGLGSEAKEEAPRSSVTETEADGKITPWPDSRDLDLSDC

For `Cc1c(C(=O)N[C@H](C)c2ccccc2)nn(-c2ccc(Cl)cc2Cl)c1-c1cc(Br)cs1` [Cpd 49, 5-(4-bromo-thiophen-2-yl)-1-(2,4-dichloro-phenyl)-4-methyl-1H-pyrazole-3-carboxylic acid [(1R)-1-phenyl-ethyl]-amide], the inhibition at 0.2 µM in test [1] stood at 63%; in test [2], 76%.
Regarding `C[C@@H](NC(=O)c1nn(-c2ccc(Cl)cc2Cl)c(-c2ccc(Cl)s2)c1C#N)c1ccccc1` [Cpd 25, 5-(5-chloro-thiophen-2-yl)-4-cyano-1-(2,4-dichloro-phenyl)-1H-pyrazole-3-carboxylic acid [(1R)-1-phenyl-ethyl]-amide], in test [1], the inhibition at 0.2 µM amounted to 13%. Besides, the IC50 in test [2] worked out at 16 nM.
As to `CCc1c(C(=O)N[N+]2(C)CCCCC2)nn(-c2ccc(Cl)cc2Cl)c1-c1ccc(Br)s1` [Cpd 52, 1-{[5-(5-bromo-thiophen-2-yl)-1-(2,4-dichloro-phenyl)-4-ethyl-1H-pyrazole-3-carbonyl]-amino}-1-methyl-piperidinium], the inhibition at 0.2 µM in test [1] was 0%; in test [2], 51%.
Regarding `Cc1ccc(-c2c(C)c(C(=O)N[C@@H](C)c3ccccc3)nn2-c2ccc(Cl)cc2Cl)o1` [Cpd 54, 1-(2,4-dichloro-phenyl)-4-methyl-5-(5-methyl-furan-2-yl)-1H-pyrazole-3-carboxylic acid [(1S)-1-phenyl-ethyl]-amide], the inhibition at 0.2 µM in test [1] was found to be 52%. Besides, the IC50 in test [2] (from percent inhibition studies at various test concentrations, calculated by linear regression, radioligand CP-55,940 0.2 nM, read-out: Cannabinoid CB1 Receptor Binding, IC50 binding value) was 140 nM.
With `C[C@@H](NC(=O)c1nn(-c2ccc(Cl)cc2Cl)c(-c2cccs2)c1C#N)c1ccccn1` [Cpd 17, 4-cyano-1-(2,4-dichloro-phenyl)-5-thiophen-2-yl-1H-pyrazole-3-carboxylic acid [(1R)-1-pyridin-2-yl-ethyl]-amide], the inhibition at 0.2 µM in test [1] was 14%; in test [2] it was 25%.
Take `CCc1c(C(=O)NN2CCCCC2)nn(-c2ccc(Cl)cc2Cl)c1-c1ccc(Cl)s1` [Cpd 15, 5-(5-chloro-thiophen-2-yl)-1-(2,4-dichloro-phenyl)-4-ethyl-1H-pyrazole-3-carboxylic acid piperidin-1-ylamide]: the inhibition at 0.2 µM in test [1] came to 29%. Moreover, the IC50 in test [2] was 12 nM.
As to `Cc1ccc(-c2c(C)c(C(=O)N[C@H](C)C3CCCCC3)nn2-c2ccc(Cl)cc2Cl)o1` [Cpd 57, 1-(2,4-dichloro-phenyl)-4-methyl-5-(5-methyl-furan-2-yl)-1H-pyrazole-3-carboxylic acid [(1R)-1-cyclohexyl-ethyl]-amide], the results for the inhibition at 0.2 µM in test [1] and in test [2] were 28% and 46%, respectively.
The like results for `Cc1c(C(=O)NN2CCCCC2)nn(-c2ccc(Cl)cc2Cl)c1-c1cc(Br)cs1` [Cpd 44, 5-(4-bromo-thiophen-2-yl)-1-(2,4-dichloro-phenyl)-4-methyl-1H-pyrazole-3-carboxylic acid piperidin-1-ylamide] were, in that order, 53% and 74%.
Regarding `C[C@H](NC(=O)c1nn(-c2ccc(Cl)cc2Cl)c(-c2cccs2)c1C#N)c1ccccc1` [Cpd 19, 4-cyano-1-(2,4-dichloro-phenyl)-5-thiophen-2-yl-1H-pyrazole-3-carboxylic acid [(1S)-1-phenyl-ethyl]-amide], the inhibition at 0.2 µM in test [1] was determined as 24%; in test [2], 45%.
As to `CCc1c(C(=O)N[C@@H](C)c2ccccn2)nn(-c2ccc(Cl)cc2Cl)c1-c1ccc(Br)s1` [Cpd 41, 5-(5-bromo-thiophen-2-yl)-1-(2,4-dichloro-phenyl)-4-ethyl-1H-pyrazole-3-carboxylic acid [(1S)-1-pyridin-2-yl-ethyl]-amide], the inhibition at 0.2 µM in test [1] stood at 45%. In test [2], this compound returned an IC50 of 15 nM.
For `Cc1c(C(=O)N2CCCCC2)nn(-c2ccc(Cl)cc2Cl)c1-c1cc(Br)cs1` [Cpd 45, [5-(4-bromo-thiophen-2-yl)-1-(2,4-dichloro-phenyl)-4-methyl-1H-pyrazol-3-yl]-piperidin-1-yl-methanone], the inhibition at 0.2 µM in test [1] is 12%; in test [2], 33%.
In the case of `CCc1c(C(=O)N[C@@H](C)c2ccccc2)nn(-c2ccc(Cl)cc2Cl)c1-c1ccc(Br)s1` [Cpd 42, 5-(5-bromo-thiophen-2-yl)-1-(2,4-dichloro-phenyl)-4-ethyl-1H-pyrazole-3-carboxylic acid [(1S)-1-phenyl-ethyl]-amide], the inhibition at 0.2 µM in test [1] was determined as 38%. Also, the IC50 in test [2] was found to be 11 nM.
For the compound `Cc1c(C(=O)NN2CCCCC2=O)nn(-c2ccc(Cl)cc2Cl)c1-c1ccc(Cl)s1` [Cpd 30, 5-(5-chloro-thiophen-2-yl)-1-(2,4-dichloro-phenyl)-4-methyl-1H-pyrazole-3-carboxylic acid (2-oxo-piperidin-1-yl)-amide], the inhibition at 0.2 µM in test [1] was 15%; in test [2], 17%.
For `Cc1c(C(=O)NN2CCCCC2)nn(-c2ccc(Cl)cc2Cl)c1-c1ccc(F)s1` [Cpd 28, 1-(2,4-dichloro-phenyl)-5-(5-fluoro-thiophen-2-yl)-4-methyl-1H-pyrazole-3-carboxylic acid piperidin-1-ylamide], the inhibition at 0.2 µM in test [1] was 20%; in test [2], 69%.
For `C[C@@H](NC(=O)c1nn(-c2ccc(Cl)cc2Cl)c(-c2cccs2)c1C#N)C1CCCCC1` [Cpd 18, 4-cyano-1-(2,4-dichloro-phenyl)-5-thiophen-2-yl-1H-pyrazole-3-carboxylic acid [(1R)-1-cyclohexyl-ethyl]-amide], in that order: 21% and 66%.
With `Cc1c(C(=O)NN2CC3CCCC3C2)nn(-c2ccc(Cl)cc2Cl)c1-c1cccs1` (stereo not shown) [Cpd 11, 1-(2,4-dichloro-phenyl)-4-methyl-5-thiophen-2-yl-1H-pyrazole-3-carboxylic acid (hexahydro-cyclopenta[c]pyrrol-2-yl)-amide], the inhibition at 0.2 µM was determined as 0% in test [1] and 53% in test [2].
With `CCc1c(C(=O)NN2CCCCC2)nn(-c2ccc(Cl)cc2Cl)c1-c1ccc(Br)s1` [Cpd 35, 5-(5-bromo-thiophen-2-yl)-1-(2,4-dichloro-phenyl)-4-ethyl-1H-pyrazole-3-carboxylic acid piperidin-1-ylamide], the inhibition at 0.2 µM in test [1] turned out to be 29%. Also, in test [2], the IC50 came out at 13 nM.
As to `Cc1ccc(-c2c(C)c(C(=O)N[C@H](C)c3ccccc3)nn2-c2ccc(Cl)cc2Cl)o1` [Cpd 55, 1-(2,4-dichloro-phenyl)-4-methyl-5-(5-methyl-furan-2-yl)-1H-pyrazole-3-carboxylic acid [(1R)-1-phenyl-ethyl]-amide], the inhibition at 0.2 µM in test [1] stood at 30%; in test [2], 58%.
On to `Cc1c(C(=O)N[C@@H](C)C2CCCCC2)nn(-c2ccc(Cl)cc2Cl)c1-c1ccc(Cl)s1` [Cpd 12, 5-(5-chloro-thiophen-2-yl)-1-(2,4-dichloro-phenyl)-4-methyl-1H-pyrazole-3-carboxylic acid [(1S)-1-cyclohexyl-ethyl]-amide], for which the inhibition at 0.2 µM in test [1] stood at 40%. The IC50 in test [2] amounted to 15 nM.
Regarding `CCc1c(C(=O)N2CCC(O)CC2)nn(-c2ccc(Cl)cc2Cl)c1-c1ccc(Br)s1` [Cpd 50, [5-(5-bromo-thiophen-2-yl)-1-(2,4-dichloro-phenyl)-4-ethyl-1H-pyrazol-3-yl]-(4-hydroxy-piperidin-1-yl)-methanone], the results for the inhibition at 0.2 µM in test [1] and in test [2] were 17% and 28%, respectively.
For `C[C@@H](NC(=O)c1nn(-c2ccc(Cl)cc2Cl)c(-c2cccs2)c1C#N)c1ccccc1` [Cpd 16, 4-cyano-1-(2,4-dichloro-phenyl)-5-thiophen-2-yl-1H-pyrazole-3-carboxylic acid [(1R)-1-phenyl-ethyl]-amide], in that order: 17% and 61%.
For `Cc1c(C(=O)N[C@H](C)C2CCCCC2)nn(-c2ccc(Cl)cc2Cl)c1-c1cccs1` [Cpd 5, 1-(2,4-dichloro-phenyl)-4-methyl-5-thiophen-2-yl-1H-pyrazole-3-carboxylic acid [(1R)-1-cyclohexyl-ethyl]-amide], in that order: 15% and 43%.
With `N#Cc1c(C(=O)NN2CCCCC2)nn(-c2ccc(Cl)cc2Cl)c1-c1cccs1` [Cpd 20, 4-cyano-1-(2,4-dichloro-phenyl)-5-thiophen-2-yl-1H-pyrazole-3-carboxylic acid piperidin-1-ylamide], the inhibition at 0.2 µM in test [1] was determined as 9%; in test [2], 37%.

For orientation: inhibition means how much of the control response was suppressed. By IC50 is commonly meant the concentration that inhibits the measured activity by half.

The record behind these values is US20070117858A1, “SUBSTITUTED 5-HETEROARYL-1-PHENYL-PYRAZOLE CANNABINOID MODULATORS” (priority 2005, published 2007).
